This passage reports Kd results from publication PMC11032351, “Epigenetic modulation through BET bromodomain inhibitors as a novel therapeutic strategy for progranulin-deficient frontotemporal dementia” (Scientific Reports, 2024).

pKd: −log10 of the molar value.

The target in the test is T1, Recombinant BRD4(BD2) (Homo sapiens, UniProt O60885).
T1 construct: using the recombinant, individually purified bromodomains of BRD4 (GST-tagged BD1 and BD2); purchased Epicypher, Inc 15–0013
Briefly: TR-FRET ligand displacement, recombinant GST-BRD4(BD2). The class given is binding. Conditions: GST-tagged, with 95% confidence interval. How it is done: Unless otherwise noted, experiments were performed in white, 384-well microtiter plates (Corning 3572 or PerkinElmer ProxiPlate-384 Plus) in 30 μL or 10 μL assay volume, respectively. TR-FRET measurements were acquired on a Tecan SPARK plate reader with SPARKCONTROL software version V2.1 (Tecan Group Ltd.), with the following settings: 340/50 nm excitation, 490/10 nm (Tb), 520/10 nm (FITC) emission, 100 μs delay, and 400 μs integration. The 490/10 and 520/10 nm emission channels were acquired with a 50% mirror and a dichroic 510 mirror, respectively, using independently optimized detector gain settings unless specified otherwise. The TR-FRET ratio was taken as the 520/490 nm intensity ratio on a per-well basis.
Assays were performed as described. Recombinant BRD4(BD1) and BRD4(BD2) were purchased from BPS Biosciences, Inc and Epicypher, Inc (GST-BRD4(BD1), 31,040; GST-BRD4(BD2), 15–0013, respectively). Recombinant bromodomains were diluted to 0.5 nM in assay buffer (25 mM HEPES, 150 mM NaCl, 0.5 mg/mL BSA, 0.005% TWEEN-20, pH 7.5) with 2 nM CoraFluor-1-labeled GST VHH (ChromoTek ST-250), then JQ1-FITC was added in serial dilution (cmax = 100 nM) using an HP D300 digital dispenser and allowed to equilibrate for 2 h at room temperature before TR-FRET measurements were taken. Nonspecific signal was determined with 50 μM JQ1-Acid, and data were fitted to a One Site–Specific Binding model in Prism 9. The KD determined from the one-site model was then used in Eq. 1 to adjust for a two-site model due to the dimeric GST protein:1 KD,2-site=KD,1-site×(1+2)
The following assay parameters have been used: (i) 4 nM GST-BRD4(BD1), 4 nM CoraFluor-labeled GST VHH, 20 nM JQ1-FITC in assay buffer, (ii) 4 nM GST-BRD4(BD2), 4 nM CoraFluor-labeled GST VHH, 20 nM JQ1-FITC in assay buffer, (iii) HEK293T or NPC cell lysate at 0.8 mg/mL total protein, 1 nM rabbit anti-BRD4 antibody, 2 nM CoraFluor-labeled anti-rabbit Nano-Secondary, 20 nM JQ1-FITC. For all experiments, test compounds were added in serial dilution (cmax = 10 μM) using an HP D300 digital dispenser and allowed to equilibrate for 2 h at room temperature before TR-FRET measurements were taken. The assay floor (background) was defined with the 10 μM mivebresib dose, and the assay ceiling (top) was defined via a no-inhibitor control. Data were fitted to a four-parameter dose–response model in Prism 9.
For TR-FRET ligand displacement assays with recombinant bromodomains, we have determined the KD of the respective fluorescent tracer (JQ1-FITC) under each assay condition. For endogenous BRD4 in whole cell extract, we have determined the KD,app of JQ1-FITC under each assay condition. Inhibitor KD and KD,app values have been calculated using Cheng-Prusoff principles, outlined in Eq. 2 below:2 KDorKD,app=IC50/1+[S]/KX where IC50 is the measured IC50 value, [S] is the concentration of fluorescent tracer, and KX is the KD or KD,app of the fluorescent tracer for a given condition.
With `Cn1cc(-c2cccnc2Oc2ccc(F)cc2)c2cc[nH]c2c1=O` [Compound 18A, 4-(2-(4-fluorophenoxy)pyridin-3-yl)-6-methyl-1H-pyrrolo[2,3-c]pyridin-7(6H)-one], the negative-log Kd (pKd) was 7.62.

For the compound `Cn1ccc2c(-c3cccnc3Sc3ccc(F)cc3)c[nH]c2c1=O` [Compound 84B, 3-(2-((4-fluorophenyl)thio)pyridin-3-yl)-6-methyl-1,6-dihydro-7H-pyrrolo[2,3-c]pyridin-7-one], the negative-log Kd (pKd) was 6.88.

Regarding `Cn1cc(-c2cccnc2Nc2ccc(F)cc2)c2cc[nH]c2c1=O` [Compound 85A, 4-(2-((4-fluorophenyl)amino)pyridin-3-yl)-6-methyl-1,6-dihydro-7H-pyrrolo[2,3-c]pyridin-7-one], the negative logarithm of the Kd (pKd) was 6.38.

On to `Cn1cc(-c2cccnc2Oc2ccc(F)c(F)c2)c2cc[nH]c2c1=O` [Compound 81A, 4-(2-(3,4-difluorophenoxy)pyridin-3-yl)-6-methyl-1,6-dihydro-7H-pyrrolo[2,3-c]pyridin-7-one], for which the pKd is 7.47.

Consider `Cn1cc(-c2cccnc2Oc2cc(F)cc(F)c2)c2cc[nH]c2c1=O` [Compound 82A, 4-(2-(3,5-difluorophenoxy)pyridin-3-yl)-6-methyl-1,6-dihydro-7H-pyrrolo[2,3-c]pyridin-7-one], for which the negative logarithm of the Kd (pKd) is 7.52.

For the compound `Cn1ccc2c(-c3cccnc3Oc3cc(F)cc(F)c3)c[nH]c2c1=O` [Compound 82B, 3-(2-(3,5-difluorophenoxy)pyridin-3-yl)-6-methyl-1,6-dihydro-7H-pyrrolo[2,3-c]pyridin-7-one], the negative-log Kd (pKd) is 6.48.

As for `Cn1ccc2c(-c3cccnc3Nc3ccc(F)cc3)c[nH]c2c1=O` [Compound 85B, 3-(2-((4-fluorophenyl)amino)pyridin-3-yl)-6-methyl-1,6-dihydro-7H-pyrrolo[2,3-c]pyridin-7-one], the negative-log Kd (pKd) was 5.56.

As for `Cn1cc(-c2cc(F)cnc2Oc2ccc(F)cc2)c2cc[nH]c2c1=O` [Compound 86A, 4-(5-fluoro-2-(4-fluorophenoxy)pyridin-3-yl)-6-methyl-1,6-dihydro-7H-pyrrolo[2,3-c]pyridin-7-one], the pKd was 6.49.

For the compound `Cn1ccc2c(-c3cccnc3Oc3ccc(F)cc3)c[nH]c2c1=O` [Compound 18B, 3-[2-(4-fluorophenoxy)pyridin-3-yl]-6-methyl-1,6-dihydro-7H-pyrrolo[2,3-c]pyridin-7-one], the pKd is 6.80.

As to `Cn1cc(-c2cccnc2Sc2ccc(F)cc2)c2cc[nH]c2c1=O` [Compound 84A, 4-(2-((4-fluorophenyl)thio)pyridin-3-yl)-6-methyl-1,6-dihydro-7H-pyrrolo[2,3-c]pyridin-7-one], the negative-log Kd (pKd) is 6.70.

Turning to `Cn1ccc2c(-c3cc(F)cnc3Oc3ccc(F)cc3)c[nH]c2c1=O` [Compound 86B, 3-(5-fluoro-2-(4-fluorophenoxy)pyridin-3-yl)-6-methyl-1,6-dihydro-7H-pyrrolo[2,3-c]pyridin-7-one], the negative logarithm of the Kd (pKd) was 5.43.

As to `Cn1ccc2c(-c3cccnc3Oc3ccc(F)c(F)c3)c[nH]c2c1=O` [Compound 81B, 3-(2-(3,4-difluorophenoxy)pyridin-3-yl)-6-methyl-1,6-dihydro-7H-pyrrolo[2,3-c]pyridin-7-one], the pKd was 6.43.
